Measurements taken from patent publication US20070110901A1, “Method for identifying weakly binding molecule fragments having ligand properties, whereby the molecule fragments are applied in the form of microdrops of a corresponding solution to the crystal” (Proteros Biostructures GMBH, priority 2003, published 2007).

Legend:
thrombin = assay: X-ray crystallography of freely mounted crystal after dripping on picoliter drops (FIG. 4); type: binding; details: active center of thrombin around Ser195; 2F0-F0 density outlined at 1σ
Excerpt: FIG. 4: The covalently bound inhibitor as well as individual amino acids in the environment of the active center of the thrombin around Ser195 are depicted in the form of a stick model. Oxygen atoms are depicted in red, sulfur atoms in yellow, nitrogen atoms in blue, and carbon atoms in gray. Additionally, the inhibitor is overlaid by its 2F0-F0 electron density (outlined at 1σ). The inhibitor is clearly defined concerning its electron density.
Thereby, evidence has been offered that the approach of dripping picoliter drops onto a protein crystal by use of the free mounting system works.

[1] = system: DPIV (dipeptidyl peptidase IV); assay: X-ray crystallography of DPIV crystal treated with inhibitor (FIG. 5); type: binding; details: active center of DPIV around Ser630; 2F0-F0 density outlined at 1σ
Excerpt: Oxygen atoms are depicted in red, nitrogen atoms in blue, and carbon atoms in gray. Additionally, the inhibitor as well as Ser630, which is covalently coupled to the inhibitor, is overlaid by its 2F0-F0 electron density (outlined at 1σ). The inhibitor is clearly defined concerning its electron density (FIG. 5).
From the used tripeptide having the sequence Ile-Pro-Ile, the C-terminal isoleucine is cleaved off while the dipeptide remains covalently linked with Ser630 and is not cleaved off.
The target enzyme was DPIV (dipeptidyl peptidase IV). Different fragments were solved in a cocktail together. In a cocktail (i), molecules of two different molecule species were combined, i.e. a mimetic (altered peptide backbone (vinyl derivative) of the N-terminal dipeptide of a substrate of the DPIV (having a free N-terminus) and, on the other hand, a mimetic (also a dipeptide with acetylated, blocked N-terminus, also. as. framework mimetic—vinyl derivative). In a second cocktail (ii), five different molecule species (which differed concerning both side chains of the two dipeptide mimetics) from each of the two mimetic classes, i.e. 10 molecule species altogether, were combined in a cocktail.

| Molecule | binding seen in experimentally determined electron density (thrombin) | binding mode seen in electron density [1] |
| --- | --- | --- |
| O=S(=O)(F)Cc1ccccc1 [PMSF, phenylmethylsulfonyl fluoride] | covalent bond of the PMSF at Ser195 | – |
| diprotin A | – | rather acts as a suicide substrate than as an inhibitor |
